From article PMC12275099, “VX-445 (elexacaftor) inhibits chloride secretion across human bronchial epithelial cells by directly blocking KCa3.1 channels” (PNAS Nexus, 2025)
Where “and” joins values, the source holds several entries; their conditions need not be identical. Equal values may be shown once.

Tests used:
[1] = molecular target: T1, KCa3.1 (Homo sapiens, UniProt O15554); assay: Excised inside-out patch-clamp on HEK-KCa3.1; format: biochemical; details: for relative remaining current: Fig 3I single experiments
T1 construct: expressed in transfected cells
Procedure: Our Isc results are consistent with VX-445 inhibiting KCa3.1 in HBEs. To directly assess this possibility, we initially carried out whole-cell patch-clamp studies on undifferentiated HBEs. […] Upon application of 10 µM VX-445, a majority of this current was inhibited, averaging 87 ± 4% (n = 3, P < 0.005; Fig. 3B). A summary of the current–voltage (I–V) relationship—normalized to cell capacitance—is shown in Fig. 3C, which also includes the whole-cell I–V in the presence of Tram-34. […] To ensure isolation of KCa3.1 currents and to more fully characterize this VX-445-dependent inhibition of KCa3.1, we utilized HEK cells heterologously expressing KCa3.1 (HEK-KCa3.1). Initially, we confirmed our results from HBEs, using whole-cell recordings, as above. […] In seven experiments, this inhibition averaged 58 ± 7% (P < 0.005). […] It is well recognized that drugs are carried to their targets in the blood bound to albumin, which ranges from 3.4 to 5.4%. Thus, we determined whether VX-445 (10 µM) would inhibit KCa3.1 expressed in HEK cells in the presence of 3.4% albumin. In four experiments, VX-445 inhibited an average of 51 ± 17% of the whole-cell KCa3.1 current, which is not different from that observed in the absence of albumin. To confirm the direct effect of VX-445 on KCa3.1, we utilized the excised, inside-out patch-clamp technique. The patch was then exposed to DCEBIO (100 µM) to further activate the channels ([34–37])—analogous to our Isc studies in HBEs. […] In three experiments, VX-445 inhibited an average of 63 ± 6% of the KCa3.1 current. Based on these experiments, we determined the apparent inhibitory constant, Ki for VX-445. For these experiments, patches were excised into saturating Ca^2+ (3 µM) to ensure maximal KCa3.1 activation. These studies were carried out in the absence of DCEBIO to eliminate the possibility that the inhibition observed was due to competition for the DCEBIO-binding site.
HEK cells stably expressing KCa3.1 (IK1, SK4), KCa2.3 (SK3), and KCa2.2 (SK2) were generated and cultured as previously described by us ([37], [66–71]).
HEK cells expressing the channel of interest were plated onto poly-L-lysine-coated glass coverslips 1–2 days prior to patch-clamp analysis. Electrophysiological recordings in the excised, inside-out, and whole-cell patch-clamp configurations were performed as recently described ([14]). For excised patch-clamp recordings, the pipette solution contained (in mM): 140 K-gluconate, 5 KCl, 1 CaCl2, 1 MgCl2, and 10 HEPES. The pH was adjusted to 7.2 with KOH. The bath solution contained (in mM): 145 K-gluconate, 5 KCl, 1.3 MgCl2, 10 HEPES, and 1 EGTA. Sufficient CaCl2 was added to obtain the desired free Ca^2+ concentration at a pH of 7.2 (adjusted with KOH). When recording KCa3.1 channels, ATP (300 µM) was added to the bath to diminish channel rundown ([73]). All recordings were carried out at a voltage of −100 mV, referenced to the extracellular compartment, as is standard. The apparent Ki and Hill coefficient for each CFTR corrector on KCa3.1, KCa2.3, and KCa2.2 were determined during a continuous recording by step-wise addition of increasing concentrations of compound and fitting the resultant relative remaining current to a Hill equation (Prism v. 10.1.0). The zero current level was determined by the addition of a 0 Ca^2+ solution (zero-added Ca^2+ plus 1 mM EGTA) at the end of the experiment. In the case of KCa3.1, TRAM-34, a known inhibitor of KCa3.1 ([45]), was used to confirm expression of the channel. For whole-cell experiments, pipettes contained (in mM): 145 K-gluconate, 10 EGTA, 7.5 CaCl2, 2 MgCl2, 3 mM NaATP, and 10 HEPES. The bath solution contained (in mM): 140 K-gluconate, 5 KCl, 1.0 MgCl2, 10 HEPES, and 2 CaCl2. Current–voltage relationships were determined by stepping from a holding potential of −80 mV to +80 mV in 20 mV increments for 400 ms. […]

[2] = set-up: method as in PMID 36371965; details: patients with CF, converted; cited from earlier work
[3] = tested on: preconstricted mesenteric artery; set-up: method as in PMID 38954478; details: cited from earlier work

`Cc1nn(C)cc1S(=O)(=O)NC(=O)c1ccc(-n2ccc(OCC(C)(C)C(F)(F)F)n2)nc1N1C[C@@H](C)CC1(C)C` [VX-445, elexacaftor] gave a Hill coefficient ([1]; 3 µM free Ca2+, absence of DCEBIO) of 1.2, a Ki ([1]; 3 µM free Ca2+, absence of DCEBIO, Hill fit, n = 4, read-out: apparent Ki) of 8 ± 2 µM and an inhibition at 10 µM ([1]; 10 µM compound after DCEBIO 100 µM, 1 µM free Ca2+, three experiments, read-out: inhibition of KCa3.1 current in excised patch) of 63 ± 6%. For the same compound, the “selectivity among KCNN gene family members” value ([1]; KCa3.1 versus KCa2.2 and KCa2.3) was “exhibits selectivity for KCa3.1 over KCa2.x channels”, the relative remaining current ([1]; [VX-445] 0.1) was 100 and the relative remaining current ([1]; [VX-445] 1) was 86 and 95 and 100 and 83. The relative remaining current ([1]; [VX-445] 3) was 68 and 80 and 93 and 62, the “mean concentration in nasal brushing cell lysates, upper end” value [2] was roughly 9 µM and the “effect on preconstricted mesenteric artery” value [3] was “capable of relaxing preconstricted mesenteric artery”.
